# Source: US9963445B2, “Chemical compounds” (SYNGENTA PARTICIPATIONS AG, priority 2013, dated 2018)
# What was measured:
# Assay type in all cases: in vivo
# Abutilon theophrasti [1] = assay: Pre-emergence herbicidal activity, glasshouse pot test; settings: pre-emergence spray, rate 1000 g/ha, evaluated after 13 days, scale 0-5
# Outline: (§1)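 Glasshouse conditions were 24/16 °C day/night with 14 h light and 65% humidity throughout. Soil was sprayed before emergence, one day after sowing, using an acetone/water (50:50) formulation with 0.5% Tween 20; injury was scored 0–5 after 13 days.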
# Alopecurus myosuroides [2] = assay: as above; settings: pre-emergence spray, rate 1000 g/ha, evaluated after 13 days, scale 0-5
# Outline: as §1
# Amaranthus retroflexus [3] = assay: as above; settings: pre-emergence spray, rate 1000 g/ha, evaluated after 13 days, scale 0-5
# Outline: as §1
# Echinochloa crus-galli [4] = assay: as above; settings: pre-emergence spray, rate 1000 g/ha, evaluated after 13 days, scale 0-5
# Outline: as §1
# Setaria faberi [5] = assay: as above; settings: pre-emergence spray, rate 1000 g/ha, evaluated after 13 days, scale 0-5
# Outline: as §1
# zea mays [6] = assay: as above; settings: pre-emergence spray, rate 1000 g/ha, evaluated after 13 days, scale 0-5
# Outline: as §1
# Abutilon theophrasti [7] = assay: Post-emergence herbicidal activity, glasshouse pot test; parameters: key: 0 = no damage to plant, 5 = total damage to plant; settings: Application post-emergence, rate 1000 g/ha, evaluated after 13 days
# Outline: (§2)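 After 8 days of glasshouse growth at 24/16 °C day/night, potted plants receive a foliar spray of the formulated compound (0.5% Tween 20 in acetone/water). They are then watered twice daily under unchanged conditions, and phytotoxicity is scored 0–5 after 13 days.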
# Alopecurus myosuroides [8] = assay: as above; parameters: key: 0 = no damage to plant, 5 = total damage to plant; settings: Application post-emergence, rate 1000 g/ha, evaluated after 13 days
# Outline: as §2
# Amaranthus retroflexus [9] = assay: as above; parameters: key: 0 = no damage to plant, 5 = total damage to plant; settings: Application post-emergence, rate 1000 g/ha, evaluated after 13 days
# Outline: as §2
# Echinochloa crus-galli [10] = assay: as above; parameters: key: 0 = no damage to plant, 5 = total damage to plant; settings: Application post-emergence, rate 1000 g/ha, evaluated after 13 days
# Outline: as §2
# Setaria faberi [11] = assay: as above; parameters: key: 0 = no damage to plant, 5 = total damage to plant; settings: Application post-emergence, rate 1000 g/ha, evaluated after 13 days
# Outline: as §2
# zea mays [12] = assay: as above; parameters: key: 0 = no damage to plant, 5 = total damage to plant; settings: Application post-emergence, rate 1000 g/ha, evaluated after 13 days
# Outline: as §2
SMILES,"ABUTH damage score, application pre-emergence (Abutilon theophrasti [1])","ALOMY damage score, application pre-emergence (Alopecurus myosuroides [2])","AMARE damage score, application pre-emergence (Amaranthus retroflexus [3])","ECHCG damage score, application pre-emergence (Echinochloa crus-galli [4])","SETFA damage score, application pre-emergence (Setaria faberi [5])","ZEAMX damage score, application pre-emergence (zea mays [6])",ABUTH herbicidal damage score (Abutilon theophrasti [7]),ALOMY herbicidal damage score (Alopecurus myosuroides [8]),AMARE herbicidal damage score (Amaranthus retroflexus [9]),ECHCG herbicidal damage score (Echinochloa crus-galli [10]),SETFA herbicidal damage score (Setaria faberi [11]),ZEAMX herbicidal damage score (zea mays [12])
CC1=C(Cl)C(=O)N(c2ncc(F)cc2F)C1O (stereo not drawn) [AF62],2,0,2,0,0,0,2,1,0,1,1,0
CC1=C(Cl)C(=O)N(c2ncc(C(F)(F)F)cc2F)C1O (stereo not drawn) [AF63],0,0,0,0,0,0,1,1,0,1,1,0
CC1=C(Cl)C(=O)N(c2cc(OC(F)(F)F)ccn2)C1O (stereo not drawn) [AF74],2,3,5,4,4,2,5,4,5,5,5,2
CCCC1=C(Cl)C(=O)N(c2cc(C(F)(F)F)ccn2)C1O (stereo not drawn) [AF81],4,3,5,5,2,2,5,4,5,5,4,2
CC(C)(C)C1=C(Cl)C(=O)N(c2cc(C(F)(F)F)ccn2)C1O (stereo not drawn) [AF82],0,0,0,0,0,1,0,0,0,3,0,2
CC(C)C1=C(Cl)C(=O)N(c2cc(C(F)(F)F)ccn2)C1O (stereo not drawn) [AF83],0,2,2,2,1,1,2,3,0,2,0,0
"CCC1=C(Cl)C(=O)N(c2cc(C(F)(F)F)ccn2)C1O (stereo not drawn) [AF84, 4-chloro-3-ethyl-2-hydroxy-1-[4-(trifluoromethyl)-2-pyridyl]-2H-pyrrol-5-one]",2,3,5,5,2,0,5,5,4,5,5,3
CC1=C(Cl)C(=O)N(c2cc(C(F)(F)F)c(-c3ccc(Cl)cc3)cn2)C1O (stereo not drawn) [AF87],0,2,2,0,3,0,4,4,5,4,5,3
CC1=C(Cl)C(=O)N(c2cc(C(F)(F)F)c(C(=O)NC(C)(C)C)cn2)C1O (stereo not drawn) [AF88],5,4,5,5,5,4,5,5,5,5,5,5
CC1=C(Cl)C(=O)N(c2cc3c(cn2)CCCC3)C1O (stereo not drawn) [AF89],1,2,2,3,5,1,5,3,5,5,5,1
CC1=C(Cl)C(=O)N(c2cc(C(F)(F)F)c(C(=O)OC(C)C)cn2)C1O (stereo not drawn) [AF92],2,4,4,3,5,3,5,4,5,5,5,4
CC1=C(Cl)C(=O)N(c2cc(C(F)(F)F)c(-c3ccc(C#N)cc3)cn2)C1O (stereo not drawn) [AF93],1,0,2,0,0,0,4,4,5,4,4,2
CCC(=O)OC1C(C)=C(Cl)C(=O)N1c1cc(C(F)(F)F)c(-c2cccc(C#N)c2)cn1 (stereo not drawn) [AF94],0,0,3,0,0,0,3,3,4,3,3,1
CC1=C(Cl)C(=O)N(c2cc(C(F)(F)F)c(-c3cccc(C#N)c3)cn2)C1O (stereo not drawn) [AF95],0,0,0,0,0,0,3,2,5,2,4,2
CCN(CC)C(=O)c1cnc(N2C(=O)C(Cl)=C(C)C2O)cc1C(F)(F)F (stereo not drawn) [AF96],0,0,0,0,0,0,0,0,0,0,0,1
CC1=C(Cl)C(=O)N(c2cc(C(F)(F)Cl)ccn2)C1O (stereo not drawn) [AF98],1,3,5,5,5,2,5,5,5,5,5,3
